Assay results taken from US10266548B2, “Substituted benzylindazoles for use as Bub1 kinase inhibitors in the treatment of hyperproliferative diseases” (Bayer Intellectual Property GmbH, priority 2011, dated 2019).
Where two headings read alike, the source gives them in different places.

Tests used:
HeLa-MaTu-ADR cells = experiment: Proliferation assay (HeLa-MaTu-ADR cell line); format: cell-based; settings: 96 h; HeLa-MaTu-ADR, 4 days, crystal violet; read-out: Biological Assay 2: Proliferation assay (HeLa-MaTu-ADR cell line) median IC50
Procedure: (§1) Cultivated tumor cells (cells were ordered from ATCC, except HeLa-MaTu and HeLa-MaTu-ADR, which were ordered from EPO-GmbH, Berlin) were plated at a density of 1000 to 5000 cells/well, depending on the growth rate of the respective cell line, in a 96-well multititer plate in 200 μL of their respective growth medium supplemented 10% fetal calf serum. After 24 hours, the cells of one plate (zero-point plate) were stained with crystal violet (see below), while the medium of the other plates was replaced by fresh culture medium (200 μl), to which the test substances were added in various concentrations (0 μM, as well as in the range of 0.001-10 μM; the final concentration of the solvent dimethyl sulfoxide was 0.5%). The cells were incubated for 4 days in the presence of test substances. Cell proliferation was determined by staining the cells with crystal violet: the cells were fixed by adding 20 μl/measuring point of an 11% glutaric aldehyde solution for 15 minutes at room temperature. After three washing cycles of the fixed cells with water, the plates were dried at room temperature. The cells were stained by adding 100 μl/measuring point of a 0.1% crystal violet solution (pH 3.0). After three washing cycles of the stained cells with water, the plates were dried at room temperature. The dye was dissolved by adding 100 μl/measuring point of a 10% acetic acid solution. […] The change of cell number, in percent, was calculated by normalization of the measured values to the aborbtion values of the zero-point plate (=0%) and the absorbtion of the untreated (0 μm) cells (=100%). The IC50 values were determined by means of a 4 parameter fit using the company's own software.

HeLa cells = experiment: Proliferation assay (HeLa cell line); format: cell-based; settings: 4 days, crystal violet, read-out: Biological Assay 2: Proliferation assay (HeLa cell line) median IC50
NCI-H460 cells = experiment: Proliferation assay (H460 cell line); format: cell-based; settings: Homo sapiens, NCI-H460, 96 h, H460, 4 days, crystal violet; read-out: Biological Assay 2: Proliferation assay (H460 cell line) median IC50
Procedure: as §1

DU145 cells = experiment: Proliferation assay (DU145 cell line); format: cell-based; settings: Homo sapiens, DU-145, 96 h, DU145, 4 days, crystal violet; read-out: Biological Assay 2: Proliferation assay (DU145 cell line) median IC50
Procedure: as §1

MCF7 cells = experiment: Proliferation assay (MCF7 cell line); format: cell-based; settings: Homo sapiens, 96 h; MCF7, 4 days, crystal violet; read-out: Biological Assay 2: Proliferation assay (MCF7 cell line) median IC50
Procedure: Cultivated tumor cells (cells were ordered from ATCC, except HeLa-MaTu and HeLa-MaTu-ADR, which were ordered from EPO-GmbH, Berlin) were plated at a density of 1000 to 5000 cells/well, depending on the growth rate of the respective cell line, in a 96-well multititer plate in 200 μL of their respective growth medium supplemented 10% fetal calf serum. After 24 hours, the cells of one plate (zero-point plate) were stained with crystal violet (see below), while the medium of the other plates was replaced by fresh culture medium (200 μl), to which the test substances were added in various concentrations (0 μM, as well as in the range of 0.001-10 μM; the final concentration of the solvent dimethyl sulfoxide was 0.5%). The cells were incubated for 4 days in the presence of test substances. Cell proliferation was determined by staining the cells with crystal violet: the cells were fixed by adding 20 μl/measuring point of an 11% glutaric aldehyde solution for 15 minutes at room temperature. […] Absorbtion was determined by photometry at a wavelength of 595 nm. The change of cell number, in percent, was calculated by normalization of the measured values to the aborbtion values of the zero-point plate (=0%) and the absorbtion of the untreated (0 μm) cells (=100%). The IC50 values were determined by means of a 4 parameter fit using the company's own software.

Caco2 cells = experiment: Proliferation assay (Caco2 cell line); format: cell-based; settings: Homo sapiens, Caco-2, 96 h; Caco2, 4 days, crystal violet; read-out: Biological Assay 2: Proliferation assay (Caco2 cell line) median IC50
Procedure: as §1

B16F10 cells = experiment: Proliferation assay (B16F10 cell line); format: cell-based; settings: Mus musculus, B16-F10, 96 h, B16F10, 4 days, crystal violet; read-out: Biological Assay 2: Proliferation assay (B16F10 cell line) median IC50
Procedure: as §1

[1] = target: catalytic domain of human Bub1 (amino acids 704-1085) (Homo sapiens (Human), UniProt O43683); experiment: Bub1 kinase assay (TR-FRET); format: biochemical; settings: 10 μM ATP, 1 μM peptide substrate; read-out: Biological Assay 1: Bub1 kinase assay median IC50
Sequence of catalytic domain of human Bub1 (amino acids 704-1085) (O43683 704-1085): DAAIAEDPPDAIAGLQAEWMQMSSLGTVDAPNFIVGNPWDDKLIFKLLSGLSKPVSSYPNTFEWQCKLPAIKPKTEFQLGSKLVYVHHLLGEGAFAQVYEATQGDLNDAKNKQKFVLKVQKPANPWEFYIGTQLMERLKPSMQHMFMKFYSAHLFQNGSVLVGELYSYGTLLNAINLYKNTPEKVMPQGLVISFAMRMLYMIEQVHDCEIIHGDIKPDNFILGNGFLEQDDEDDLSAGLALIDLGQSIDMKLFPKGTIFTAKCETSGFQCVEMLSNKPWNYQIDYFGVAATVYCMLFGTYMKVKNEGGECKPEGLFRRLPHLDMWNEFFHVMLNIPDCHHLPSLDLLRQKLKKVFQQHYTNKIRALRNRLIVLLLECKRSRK
In short: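 Phosphoserine product detected by TR-FRET (Eu-labeled anti-mouse IgG/anti-phosphoserine antibody to streptavidin-XL665) after 1 h at 22 °C. IC50 from 4-parameter logistic fit.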

Row | IC50 (HeLa-MaTu-ADR cells) [nM] | IC50 (HeLa cells; Homo sapiens, 96 h) [nM] | IC50 (NCI-H460 cells) [nM] | IC50 (DU145 cells) [nM] | IC50 (MCF7 cells) [nM] | IC50 (Caco2 cells) [nM] | IC50 (B16F10 cells) [nM] | IC50 [1] [nM] | IC50 (HeLa cells) [nM] | Compound
1 | 1200 | 1600 | 2900 | 2000 | 2000 | 2600 | 990 | 8.4 | – | COC(=O)c1ccc(Cl)c(Cn2nc(-c3ncc(OC)c(Nc4ccncc4)n3)c3ccccc32)c1Cl [Example 2-16-1, methyl 2,4-dichloro-3-({3-[5-methoxy-4-(pyridin-4-ylamino)pyrimidin-2-yl]-1H-indazol-1-yl}methyl)benzoate]
2 | 1200 | – | 1400 | 1700 | 3100 | 1200 | 1100 | 4.6 | 2100 | CCOc1cc(F)c(Cn2nc(-c3ncc(OC)c(Nc4ccncc4)n3)c3ccccc32)c(F)c1 [Example 2-5-1, 2-[1-(4-ethoxy-2,6-difluorobenzyl)-1H-indazol-3-yl]-5-methoxy-N-(pyridin-4-yl)pyrimidin-4-amine]
